What was measured:
[1] = molecular target: Coagulation factor X (Homo sapiens, UniProt P00742); assay: Inhibition of Coagulation factor Xa
[2] = molecular target: Prothrombin (Homo sapiens, UniProt P00734); assay: Inhibitory activity against human thrombin

Chain of Coagulation factor X (P00742 41-179 limits assumed): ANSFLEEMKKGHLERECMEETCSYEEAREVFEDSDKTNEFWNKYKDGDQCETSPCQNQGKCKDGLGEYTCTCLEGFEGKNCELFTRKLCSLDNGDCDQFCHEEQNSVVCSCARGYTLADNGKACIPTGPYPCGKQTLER
Chain of Coagulation factor X (P00742 235-488 limits assumed): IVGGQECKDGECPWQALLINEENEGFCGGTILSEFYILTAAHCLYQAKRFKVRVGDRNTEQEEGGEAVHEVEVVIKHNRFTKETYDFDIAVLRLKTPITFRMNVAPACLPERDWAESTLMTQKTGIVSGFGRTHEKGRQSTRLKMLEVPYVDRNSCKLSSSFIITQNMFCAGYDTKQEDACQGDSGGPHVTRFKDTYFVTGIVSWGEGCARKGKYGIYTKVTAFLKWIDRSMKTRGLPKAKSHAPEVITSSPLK

Ki [1]	Ki [2]	Structure (SMILES)
50 nM	2070 nM	Cc1cccc2c1c(Br)c(C(=O)NCc1cccc(C(=N)N)c1)n2Cc1cccc(C(=N)N)c1
99 nM	1180 nM	N=C(N)c1cccc(Cn2c(C(=O)NCc3cc(C(F)(F)F)cc(C(F)(F)F)c3)cc3c(O)cccc32)c1
23 nM	3900 nM	Cc1cccc2c1cc(C(=O)NCc1ccc([N+](C)(C)Cc3ccccc3)cc1)n2Cc1cccc(C(=N)N)c1
–	1610 nM	Cc1cccc2c1cc(C(=O)NCc1cc(Cl)cc(Cl)c1)n2Cc1cccc(C(=N)N)c1
–	480 nM	Cc1cc(CNC(=O)c2cc3c(O)cccc3n2Cc2cccc(C(=N)N)c2)cc(C(F)(F)F)c1
–	28000 nM	CC(C)(C)OC(=O)Nc1ccc2c(c1)cc(C(=O)NCc1ccc([N+](C)(C)C)cc1)n2Cc1cccc(C(=N)N)c1
–	9090 nM	C[N+](C)(C)c1ccc(CNC(=O)c2cc3c(O)cccc3n2Cc2cccc(C(=N)N)c2)cc1
26 nM	3290 nM	N=C(N)c1cccc(CNC(=O)c2c(Br)c3ccccc3n2Cc2cccc(C(=N)N)c2)c1
–	1420 nM	Cc1cc(C)cc(CNC(=O)c2cc3c(C)cccc3n2Cc2cccc(C(=N)N)c2)c1
–	4200 nM	N=C(N)c1ccc(CNC(=O)c2cc3c(O)cccc3n2Cc2cccc(C(=N)N)c2)cc1
39 nM	1710 nM	N=C(N)c1cccc(Cn2c(C(=O)NCc3cc(F)cc(C(F)(F)F)c3)cc3c(O)cccc32)c1
15 nM	200 nM	Cc1cccc2c1cc(C(=O)NCc1nccc3ccccc13)n2Cc1cccc(C(=N)N)c1
–	4240 nM	N=C(N)c1cccc(CNC(=O)c2c(Cl)c3ccccc3n2Cc2cccc(C(=N)N)c2)c1
20 nM	290 nM	N=C(N)c1cccc(Cn2c(C(=O)NCc3nccc4ccccc34)cc3c(O)cccc32)c1
100 nM	57000 nM	C[n+]1ccc(CNC(=O)c2cc3cc(N)ccc3n2Cc2cccc(C(=N)N)c2)cc1
–	2460 nM	N=C(N)c1cccc(COC(=O)c2cc3ccccc3n2Cc2cccc(C(=N)N)c2)c1
140 nM	15800 nM	C[N+](C)(C)c1ccc(CNC(=O)c2cc3cc(Cl)ccc3n2Cc2cccc(C(=N)N)c2)cc1
99 nM	270 nM	N=C(N)c1cccc(Cn2c(C(=O)NCc3cc(Cl)cc(Cl)c3Cl)cc3c(O)cccc32)c1
–	2390 nM	Cc1cccc2c1cc(C(=O)NCc1cccc(C(=N)N)c1)n2Cc1cccc(C(=N)N)c1
60 nM	–	C[N+](C)(C)c1ccc(CNC(=O)c2cc3cc(N)ccc3n2Cc2cccc(C(=N)N)c2)cc1
6790 nM	–	COc1cccc2c1cc(C(=O)NC(c1ccccc1)c1ccncc1)n2Cc1cccc(C(=N)N)c1 (stereo not given)
948 nM	–	CCOC(=O)c1cc2c(C)cccc2n1Cc1cccc(C(=N)N)c1
2470 nM	–	CN(CCNC(=O)c1cc2c(O)cccc2n1Cc1cccc(C(=N)N)c1)c1cccc2ccccc12
89 nM	5600 nM	N=C(N)c1ccc(CNC(=O)c2cc3cc(N)ccc3n2Cc2cccc(C(=N)N)c2)cc1

Source: ChEMBL document CHEMBL1135480, “Design and quantitative structure-activity relationship of 3-amidinobenzyl-1H-indole-2-carboxamides as potent, nonchiral, and selective inhibitors of blood coagulation factor Xa” (J Med Chem, 2002)
